Measured values reported in US8076487B2, “Pyridone derivative and herbicide” (Kumiai Chemical Industry Co., Ltd., priority 2006, dated 2011).

Legend:
Assay in all cases: Test Example 1: herbicidal effect by soil application to paddy field
Type in all cases: in vivo
Settings in all cases: paddy field soil application; active ingredient 1,000 g per 1 hectare; wettable powder added dropwise to water surface the day after sowing; examined on the 21st day after application
[1] = test system: Japanese bulrush (Scirpus juncoides Roxb.)
Excerpt: (§1) Test Example 1 Test on Herbicidal Effect by Soil Application to Paddy Field In a 100 cm2 plastic pot, paddy field soil was filled. After puddling and leveling, seeds of early watergrass (Echinochloa oryzicola […] (Monochoria vaginalis ([…] Japanese bulrush (Scirpus juncoides Roxb.) were sown, and water was filled to be flooded to a water depth of 3 cm. […] Then, on the 21st day after the application to the plants grew in a greenhouse, the herbicidal effect was examined in accordance with a standard shown in Table 34. [table]

[2] = test system: early watergrass (Echinochloa oryzicola Vasing)
Excerpt: as §1

[3] = test system: heartshape false pickerelweed (Monochoria vaginalis (Burm.f.) C.Presl)
Excerpt: as §1

Row | Structure (SMILES) | herbicidal effect, Scirpus juncoides Roxb. [1] | herbicidal effect, Echinochloa oryzicola Vasing [2] | herbicidal effect, Monochoria vaginalis (Burm. f.) C. Presl [3]
1 | COCn1c(C(F)(F)F)ccc(C(=O)C2=C(O)CCCC2=O)c1=O [I-30] | 3 (50 to less than 70% of herbicidal effect and crop phytotoxicity) | 3 (50 to less than 70% of herbicidal effect and crop phytotoxicity) | 5 (90% or more of herbicidal effect and crop phytotoxicity)
2 | O=C1CCCC(O)=C1C(=O)c1ccc(C(F)(F)F)n(CS(=O)(=O)C2CCCCC2)c1=O [I-62] | 4 (70 to less than 90% of herbicidal effect and crop phytotoxicity) | 5 (90% or more of herbicidal effect and crop phytotoxicity) | 5 (90% or more of herbicidal effect and crop phytotoxicity)
3 | O=C1CCCC(O)=C1C(=O)c1ccc(C(F)(F)F)n(CS(=O)(=O)CC(F)(F)F)c1=O [I-64] | 5 (90% or more of herbicidal effect and crop phytotoxicity) | 4 (70 to less than 90% of herbicidal effect and crop phytotoxicity) | 5 (90% or more of herbicidal effect and crop phytotoxicity)
4 | COc1cccc(-n2c(C(F)(F)F)ccc(C(=O)C3=C(O)CCCC3=O)c2=O)c1 [I-77] | 5 (90% or more of herbicidal effect and crop phytotoxicity) | 5 (90% or more of herbicidal effect and crop phytotoxicity) | 5 (90% or more of herbicidal effect and crop phytotoxicity)
5 | O=C1CCCC(O)=C1C(=O)c1ccc(C(F)(F)F)n(-c2ccc(NS(=O)(=O)C(F)(F)F)cc2)c1=O [I-97] | 4 (70 to less than 90% of herbicidal effect and crop phytotoxicity) | 4 (70 to less than 90% of herbicidal effect and crop phytotoxicity) | 5 (90% or more of herbicidal effect and crop phytotoxicity)
6 | O=C1CCCC(O)=C1C(=O)c1ccc(C(F)(F)F)n(Cc2ccccc2[N+](=O)[O-])c1=O [I-115] | 5 (90% or more of herbicidal effect and crop phytotoxicity) | 5 (90% or more of herbicidal effect and crop phytotoxicity) | 5 (90% or more of herbicidal effect and crop phytotoxicity)
7 | O=C1CCCC(O)=C1C(=O)c1ccc(C(F)(F)F)n(Cc2ccc([N+](=O)[O-])cc2)c1=O [I-117] | 5 (90% or more of herbicidal effect and crop phytotoxicity) | 5 (90% or more of herbicidal effect and crop phytotoxicity) | 5 (90% or more of herbicidal effect and crop phytotoxicity)
8 | COc1ccccc1Cn1c(C(F)(F)F)ccc(C(=O)C2=C(O)CCCC2=O)c1=O [I-120] | 5 (90% or more of herbicidal effect and crop phytotoxicity) | 5 (90% or more of herbicidal effect and crop phytotoxicity) | 5 (90% or more of herbicidal effect and crop phytotoxicity)
9 | COc1cccc(Cn2c(C(F)(F)F)ccc(C(=O)C3=C(O)CCCC3=O)c2=O)c1 [I-121] | 5 (90% or more of herbicidal effect and crop phytotoxicity) | 5 (90% or more of herbicidal effect and crop phytotoxicity) | 5 (90% or more of herbicidal effect and crop phytotoxicity)
10 | COc1ccc(Cn2c(C(F)(F)F)ccc(C(=O)C3=C(O)CCCC3=O)c2=O)cc1 [I-122] | 5 (90% or more of herbicidal effect and crop phytotoxicity) | 5 (90% or more of herbicidal effect and crop phytotoxicity) | 5 (90% or more of herbicidal effect and crop phytotoxicity)
11 | CS(=O)(=O)c1ccc(Cn2c(C(F)(F)F)ccc(C(=O)C3=C(O)CCCC3=O)c2=O)cc1 [I-123] | 5 (90% or more of herbicidal effect and crop phytotoxicity) | 5 (90% or more of herbicidal effect and crop phytotoxicity) | 5 (90% or more of herbicidal effect and crop phytotoxicity)
12 | CCCCCCNn1c(C(F)(F)F)ccc(C(=O)C2=C(O)CCCC2=O)c1=O [I-166] | 5 (90% or more of herbicidal effect and crop phytotoxicity) | 5 (90% or more of herbicidal effect and crop phytotoxicity) | 5 (90% or more of herbicidal effect and crop phytotoxicity)
13 | CCCCN(CCCC)n1c(C(F)(F)F)ccc(C(=O)C2=C(O)CCCC2=O)c1=O [I-174] | 5 (90% or more of herbicidal effect and crop phytotoxicity) | 5 (90% or more of herbicidal effect and crop phytotoxicity) | 5 (90% or more of herbicidal effect and crop phytotoxicity)
14 | CCOC(=O)Nn1c(C(F)(F)F)ccc(C(=O)C2=C(O)CCCC2=O)c1=O [I-192] | 5 (90% or more of herbicidal effect and crop phytotoxicity) | 5 (90% or more of herbicidal effect and crop phytotoxicity) | 5 (90% or more of herbicidal effect and crop phytotoxicity)
15 | CC(C)(C)OC(=O)Nn1c(C(F)(F)F)ccc(C(=O)C2=C(O)CCCC2=O)c1=O [I-193] | 5 (90% or more of herbicidal effect and crop phytotoxicity) | 5 (90% or more of herbicidal effect and crop phytotoxicity) | 5 (90% or more of herbicidal effect and crop phytotoxicity)
16 | CN(C(=O)OC(C)(C)C)n1c(C(F)(F)F)ccc(C(=O)C2=C(O)CCCC2=O)c1=O [I-194] | 5 (90% or more of herbicidal effect and crop phytotoxicity) | 5 (90% or more of herbicidal effect and crop phytotoxicity) | 5 (90% or more of herbicidal effect and crop phytotoxicity)
17 | O=C(Nn1c(C(F)(F)F)ccc(C(=O)C2=C(O)CCCC2=O)c1=O)OCc1ccccc1 [I-196] | 4 (70 to less than 90% of herbicidal effect and crop phytotoxicity) | 5 (90% or more of herbicidal effect and crop phytotoxicity) | 5 (90% or more of herbicidal effect and crop phytotoxicity)
18 | CN(C(=O)OCc1ccccc1)n1c(C(F)(F)F)ccc(C(=O)C2=C(O)CCCC2=O)c1=O [I-197] | 5 (90% or more of herbicidal effect and crop phytotoxicity) | 5 (90% or more of herbicidal effect and crop phytotoxicity) | 5 (90% or more of herbicidal effect and crop phytotoxicity)
19 | Cn1c(C(F)(F)Cl)ccc(C(=O)C2=C(O)CCCC2=O)c1=O [I-225] | 5 (90% or more of herbicidal effect and crop phytotoxicity) | 5 (90% or more of herbicidal effect and crop phytotoxicity) | 5 (90% or more of herbicidal effect and crop phytotoxicity)
20 | CC(C)c1ccc(C(=O)C2=C(O)CCCC2=O)c(=O)n1-c1ccccc1 [I-232] | 5 (90% or more of herbicidal effect and crop phytotoxicity) | 5 (90% or more of herbicidal effect and crop phytotoxicity) | 5 (90% or more of herbicidal effect and crop phytotoxicity)
21 | Cc1ccc(C(=O)C2=C(O)CCCC2=O)c(=O)n1-c1cccc(C(F)(F)F)c1 [I-235] | 5 (90% or more of herbicidal effect and crop phytotoxicity) | 5 (90% or more of herbicidal effect and crop phytotoxicity) | 5 (90% or more of herbicidal effect and crop phytotoxicity)
22 | Cc1ccc(C(=O)C2=C(O)CCCC2=O)c(=O)n1-c1ccc(C(F)(F)F)cc1 [I-236] | 5 (90% or more of herbicidal effect and crop phytotoxicity) | 5 (90% or more of herbicidal effect and crop phytotoxicity) | 5 (90% or more of herbicidal effect and crop phytotoxicity)
23 | CC1CCC(=O)C(C(=O)c2ccc(C(F)(F)F)n(C)c2=O)=C1O (stereo not drawn) [II-1] | 5 (90% or more of herbicidal effect and crop phytotoxicity) | 5 (90% or more of herbicidal effect and crop phytotoxicity) | 5 (90% or more of herbicidal effect and crop phytotoxicity)
24 | Cn1c(C(F)(F)F)ccc(C(=O)C2=C(O)C(C)(C)CCC2=O)c1=O [II-2] | 5 (90% or more of herbicidal effect and crop phytotoxicity) | 5 (90% or more of herbicidal effect and crop phytotoxicity) | 5 (90% or more of herbicidal effect and crop phytotoxicity)
25 | Cn1c(C(F)(F)F)ccc(C(=O)C2=C(Sc3ccccc3)CCCC2=O)c1=O [II-8] | 5 (90% or more of herbicidal effect and crop phytotoxicity) | 5 (90% or more of herbicidal effect and crop phytotoxicity) | 5 (90% or more of herbicidal effect and crop phytotoxicity)
26 | Cc1ccc(SC2=C(C(=O)c3ccc(C(F)(F)F)n(C)c3=O)C(=O)CCC2)cc1 [II-9] | 5 (90% or more of herbicidal effect and crop phytotoxicity) | 5 (90% or more of herbicidal effect and crop phytotoxicity) | 5 (90% or more of herbicidal effect and crop phytotoxicity)
